Measured values reported in PMC10486429, “Investigations Using Albumin Binders to Modify the Tissue Distribution Profile of Radiopharmaceuticals Exemplified with Folate Radioconjugates” (Cancers, 2023).

Columns and labels:
[1] = system: KB tumor-bearing athymic nude mice; test: Biodistribution of 177Lu-RedFols in KB tumor-bearing mice; type: in vivo, mouse
Experimental: Athymic nude mice (Crl:CD1-Foxn^nu) were kept on a folate-deficient rodent diet (ssniff Spezialdiäten GmbH, Soest, Germany) for at least one week prior to inoculation with the tumor cells. Biodistribution studies were performed approx. two weeks after subcutaneous inoculation with KB tumor cells (5 × 10^6 in 100 μL PBS) (Supplementary Materials Section S12). […] Data were presented as the average ± SD of n = 3−4 mice.
Purpose: Biodistribution studies were performed in KB tumor-bearing athymic nude mice (Crl:CD1-Foxnnu) in order to investigate the tissue distribution profiles of the novel radioconjugates. The aim was to compare the impact of the two different albumin binders (4-(p-iodophenyl)butanoate unit vs. 5-(p-iodophenyl)pentanoate unit), and that of the in-corporation of an AMBA linker adjacent to the albumin binder on the distribution profile of the resulting folate radioconjugates.
Methods: The methods are described in the main article. The mice were sacrificed at […]

[2] = n-octanol/PBS distribution coefficient (shake-flask) of 177Lu-RedFols; type: physicochemical; conditions: n-octanol/PBS pH 7.4
Experimental: The radiolytic stability of ^177Lu-RedFols (50 MBq/nmol) in PBS pH 7.4 was investigated at an activity concentration of 100 MBq in 500 µL over 24 h at room temperature. The n-octanol/PBS distribution coefficients (logD values) of the folate radioconjugates (50 MBq/nmol) were determined using the same shake-flask method as used for the ^177Lu-DOTA-ALBs, including statistical analysis (Supplementary Material, Section S4). […]
S4. n-Octanol/PBS Distribution Coefficient of 177Lu-DOTA-ALBs
Purpose: The n-octanol/PBS distribution coefficients (logD values) were determined for all 177Lu-DOTA-ALBs in order to assess their hydrophilic/hydrophobic properties.
Methods: The n-octanol/PBS distribution coefficients (logD values) of the 177Lu-DOTA-ALBs were determined as previously described. […] 4 . […]
The vials were vortexed vigorously for 1 min followed by centrifugation for 6 min at 560 rcf for phase separation. An aliquot was taken from each phase and measured in a γ-counter (Perkin Elmer, Wallac Wizard 1480, Waltham, MA, USA). The distribution coeffi-cients were calculated as the logarithm of the ratio of counts per minute (cpm) measured in the n-octanol phase relative to the cpm measured in the PBS phase. The results were listed as the average ± standard deviation (SD) of the data obtained from 2–3 independent experiments, each performed with five replicates. […]

CN1c2c(nc(N)[nH]c2=O)NCC1CNc1ccc(C(=O)NC(CCC(=O)NC(CCCCNC(=O)CN2CCN(CC(=O)[O-])CCN(CC(=O)[O-])CCN(CC(=O)[O-])CC2)C(=O)NC(CCCCNC(=O)c2ccc(CNC(=O)CCCc3ccc(I)cc3)cc2)C(=O)O)C(=O)O)cc1.[177Lu+3] (stereo not drawn) [[^177Lu]Lu-6S-RedFol-3]
Blood, accumulated activity ([1]; 1 h p.i.): 22 ± 1 % IA/g
Bone, accumulated activity ([1]; 1 h p.i.): 1.9 ± 0.1 % IA/g
Intestines, accumulated activity ([1]; 1 h p.i.): 2.3 ± 0.8 % IA/g
KB tumor, accumulated activity ([1]; 1 h p.i.): 7.9 ± 1.2 % IA/g
Kidneys, accumulated activity ([1]; 1 h p.i.): 12 ± 1 % IA/g
Liver, accumulated activity ([1]; 1 h p.i.): 3.7 ± 0.2 % IA/g
Lung, accumulated activity ([1]; 1 h p.i.): 9.3 ± 1.7 % IA/g
Muscle, accumulated activity ([1]; 1 h p.i.): 1.4 ± 0.1 % IA/g
Salivary glands, accumulated activity ([1]; 1 h p.i.): 4.1 ± 0.3 % IA/g
Spleen, accumulated activity ([1]; 1 h p.i.): 2.4 ± 0.2 % IA/g
Stomach, accumulated activity ([1]; 1 h p.i.): 1.8 ± 0.2 % IA/g
Tumor-to-blood ratio ([1]; 1 h p.i.): 0.36 ± 0.06
Tumor-to-kidney ratio ([1]; 1 h p.i.): 0.66 ± 0.09
Tumor-to-liver ratio ([1]; 1 h p.i.): 2.1 ± 0.4
Blood, accumulated activity ([1]; 4 h p.i.): 14 ± 1 % IA/g
Bone, accumulated activity ([1]; 4 h p.i.): 1.8 ± 0.1 % IA/g
Intestines, accumulated activity ([1]; 4 h p.i.): 1.7 ± 0.4 % IA/g
KB tumor, accumulated activity ([1]; 4 h p.i.): 16 ± 1 % IA/g
Kidneys, accumulated activity ([1]; 4 h p.i.): 11 ± 2 % IA/g
Liver, accumulated activity ([1]; 4 h p.i.): 2.4 ± 0.2 % IA/g
Lung, accumulated activity ([1]; 4 h p.i.): 7.7 ± 2.6 % IA/g
Muscle, accumulated activity ([1]; 4 h p.i.): 1.2 ± 0.2 % IA/g
Salivary glands, accumulated activity ([1]; 4 h p.i.): 2.8 ± 0.4 % IA/g
Spleen, accumulated activity ([1]; 4 h p.i.): 1.7 ± 0.2 % IA/g
Stomach, accumulated activity ([1]; 4 h p.i.): 1.3 ± 0.1 % IA/g
Tumor-to-blood ratio ([1]; 4 h p.i.): 1.1 ± 0.1
Tumor-to-kidney ratio ([1]; 4 h p.i.): 1.4 ± 0.2
Tumor-to-liver ratio ([1]; 4 h p.i.): 6.5 ± 0.2
Blood, accumulated activity ([1]; 24 h p.i.): 8.7 ± 1.1 % IA/g
Bone, accumulated activity ([1]; 24 h p.i.): 1.2 ± 0.2 % IA/g
Intestines, accumulated activity ([1]; 24 h p.i.): 1.0 ± 0.1 % IA/g
KB tumor, accumulated activity ([1]; 24 h p.i.): 41 ± 2 % IA/g
Kidneys, accumulated activity ([1]; 24 h p.i.): 30 ± 1 % IA/g
Liver, accumulated activity ([1]; 24 h p.i.): 1.8 ± 0.4 % IA/g
Lung, accumulated activity ([1]; 24 h p.i.): 4.8 ± 0.7 % IA/g
Muscle, accumulated activity ([1]; 24 h p.i.): 1.0 ± 0.2 % IA/g
Salivary glands, accumulated activity ([1]; 24 h p.i.): 2.3 ± 0.4 % IA/g
Spleen, accumulated activity ([1]; 24 h p.i.): 2.3 ± 0.1 % IA/g
Stomach, accumulated activity ([1]; 24 h p.i.): 1.1 ± 0.1 % IA/g
Tumor-to-blood ratio ([1]; 24 h p.i.): 4.7 ± 0.3
Tumor-to-kidney ratio ([1]; 24 h p.i.): 1.3 ± 0.1
Tumor-to-liver ratio ([1]; 24 h p.i.): 24 ± 4
logD Values [2]: −3.2 ± 0.1
